Data as given in ChEMBL document CHEMBL1150935, “New polyketides from the sponge Plakortis sp” (J Nat Prod, 1998).
Converted amounts (≈) assume the structure as drawn.

Assay: Toxicity against Artemia larvae
Type: organism-based
Conditions: in vivo, read-out: LD50 (the source's name)

**Q.** For `CCCC[C@H](C)CC1(CC)C=C(CC)C(CC(=O)OC)OO1` (some centres undefined), which LC50 is on record?
**A.** Its LC50 is 70 µg/mL (≈ 224 µM).

**Q.** For `CCCC[C@H](C)CC1(CC)C=C(CC)C(CC(=O)OCC)OO1` (some centres undefined), which LC50 is on record?
**A.** Its LC50 is greater than 100 µg/mL.

**Q.** Which LC50 does the source give for `CCCC[C@H](C)CC(CC)C[C@@]1(CC)C[C@H](CC)[C@H](CC(=O)O)OO1` (some centres undefined) here?
**A.** The LC50 was 15 µg/mL (≈ 42.1 µM).

**Q.** With `CCCC[C@H](C)C[C@]1(CC)C=C(CC)/C(=C/C(=O)OC)O1` as the compound, how does the LC50 read?
**A.** Its LC50 is 7 µg/mL (≈ 23.8 µM).
